Results from the supplement of paper PMC10307832.

Tests used:
Experiment in all cases: relative viability (nuclei count vs DMSO), 5 days (fraction); higher = more cells survive
[1] = compound: CC[C@H](CO)Nc1nc(NCc2ccccc2)c2ncn(C(C)C)c2n1 [Seliciclib] + NC(=O)Nc1cc(-c2cccc(F)c2)sc1C(=O)N[C@H]1CCCNC1 [AZD7762] (partner 0.2 µM)
Procedure, shortened: (§1)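 After 5 days of treatment, lung cancer cells in 1536-well plates were fixed and stained in a single step (final 0.05% Triton X-100, 1% formaldehyde, 1 ug/ml Hoechst) and their nuclei counted on 4× images. Treatment had been applied by pin tool the day after seeding as one drug alone or as a fixed anchor-drug dose with five library-drug doses (not always all listed) in √10 steps. Relative viability is the nuclei count of treated wells divided by that of vehicle wells, and values are medians of duplicate plates.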

[2] = compound: CC[C@H](CO)Nc1nc(NCc2ccccc2)c2ncn(C(C)C)c2n1 [Seliciclib] + Cc1cc(Nc2cc(N3CCN(C)CC3)nc(Sc3ccc(NC(=O)C4CC4)cc3)n2)n[nH]1 [Tozasertib] (partner 0.1 µM)
Procedure, shortened: as §1

[3] = compound: CC[C@H](CO)Nc1nc(NCc2ccccc2)c2ncn(C(C)C)c2n1 [Seliciclib] + Nc1ncn([C@H]2C[C@H](O)[C@@H](CO)O2)c(=O)n1 [Decitabine] (partner 2 µM)
Procedure, shortened: as §1

[4] = compound: CC[C@H](CO)Nc1nc(NCc2ccccc2)c2ncn(C(C)C)c2n1 [Seliciclib] + CC(C)C[C@H](NC(=O)[C@H](Cc1ccccc1)NC(=O)c1cnccn1)B(O)O [Bortezomib] (partner 0.002 µM)
Procedure, shortened: as §1

| Cell Line | relative viability ([1]; first compound 0.08 µM) | relative viability ([1]; first compound 0.253 µM) | relative viability ([1]; first compound 0.8 µM) | relative viability ([1]; first compound 8 µM) | relative viability ([2]; first compound 0.08 µM) | relative viability ([2]; first compound 0.253 µM) | relative viability ([2]; first compound 0.8 µM) | relative viability ([2]; first compound 2.53 µM) | relative viability ([2]; first compound 8 µM) | relative viability ([3]; first compound 0.08 µM) | relative viability ([3]; first compound 0.253 µM) | relative viability ([3]; first compound 0.8 µM) | relative viability ([3]; first compound 2.53 µM) | relative viability ([3]; first compound 8 µM) | relative viability ([4]; first compound 0.08 µM) | relative viability ([4]; first compound 0.253 µM) | relative viability ([4]; first compound 0.8 µM) | relative viability ([4]; first compound 2.53 µM) | relative viability ([4]; first compound 8 µM) | relative viability ([1]; first compound 2.53 µM) |
| --- | --- | --- | --- | --- | --- | --- | --- | --- | --- | --- | --- | --- | --- | --- | --- | --- | --- | --- | --- | --- |
| LCLC-97TM1 | 0.232 | 0.258 | 0.432 | 0.392 | 0.355 | 0.248 | 0.243 | 0.168 | 0.153 | 0.237 | 0.187 | 0.189 | 0.231 | 0.201 | 0.816 | 0.767 | 0.646 | 0.163 | 0.195 | – |
| HARA | 0.348 | 0.293 | 0.381 | 0.908 | 0.0937 | 0.0958 | 0.111 | 0.782 | 0.0956 | 0.456 | 0.655 | 0.56 | 0.474 | 0.6 | 1.09 | 1.27 | 1.04 | 1.25 | 1.03 | 0.596 |
| HCC-78 | 0.689 | 0.66 | 0.62 | 0.51 | 0.367 | 0.405 | 0.411 | 0.39 | 0.381 | 0.706 | 0.659 | 0.757 | 0.641 | 0.538 | 0.532 | 0.471 | 0.433 | 0.373 | 0.396 | 0.525 |
| NCI-H1666 | 0.862 | 0.959 | 0.936 | 0.818 | 0.684 | 0.696 | 0.623 | 0.561 | 0.428 | 0.641 | 0.712 | 0.797 | 0.58 | 0.664 | 0.799 | 0.739 | 0.809 | 0.66 | 0.568 | 0.793 |
| NCI-H2347 | 0.817 | 0.759 | 0.745 | 0.865 | 0.632 | 0.517 | 0.522 | 0.645 | 0.547 | 0.66 | 0.522 | 0.597 | 0.602 | 0.597 | 1.22 | 0.927 | 0.908 | – | 0.847 | 0.763 |
| NCI-H2342 | 0.565 | 0.509 | 0.486 | 0.427 | 0.665 | 0.404 | 0.395 | 0.538 | 0.538 | 0.668 | 0.637 | 0.736 | 0.649 | 0.747 | – | – | – | – | – | 0.404 |
| NCI-H838 | 0.922 | 0.966 | 0.877 | 0.861 | 0.252 | 0.257 | 0.304 | 0.25 | 0.253 | 0.457 | 0.508 | 0.437 | 0.411 | 0.381 | 0.82 | 0.879 | 0.762 | 0.727 | 0.487 | 0.939 |
| NCI-H2023 | – | – | – | – | 0.393 | 0.357 | 0.337 | 0.36 | 0.22 | 0.217 | 0.216 | 0.203 | 0.267 | 0.248 | 0.998 | 1.1 | 1.1 | 0.747 | 0.84 | – |
